Source: patent publication US8574563B2 (Bristol-Myers Squibb Company, priority 2006, dated 2013)
pEC50: −log10 of the molar value. Read-outs that look alike come from different tables or passages of the source.

Test system: HCV 1b-377-neo replicon cells
Assay: HCV replicon assay, HCV 1b-377-neo replicon cells (1b FRET)
Format: cell-based, Hepatitis C virus genotype 1b
Conditions: HCV 1b-377-neo replicon cells, HCV 1b genotype, read-out: EC50 range against HCV 1b (Table 2, Range)
Description: An HCV Replion assay was utilized in the present disclosure, and was prepared, conducted and validated as described in commonly owned PCT/US2006/022197 and in O'Boyle et. al. Antimicrob Agents Chemother. 2005 April; 49(4):1346-53.
HCV 1b-377-neo replicon cells were used to test the currently described compound series as well as cells resistant to compound A due to a Y2065H mutation in NS5A (described in application PCT/US2006/022197). The compounds tested were determined to have more than 10-fold less inhibitory activity on cells resistant to compound A than wild-type cells indicating a related mechanism of action between the two compound series. Thus, the compounds of the present disclosure can be effective to inhibit the function of the HCV NS5A protein and are understood to be as effective in combinations as previously described in application PCT/US2006/022197 and commonly owned WO/04014852. Further, the compounds of the present disclosure can be effective against the HCV 1b genotype. It should also be understood that the compounds of the present disclosure can inhibit multiple genotypes of HCV. […] In one embodiment compounds of the present disclosure are active against the 1a, 1b, 2a, 2b, 3a, 4a, and 5a genotypes.

O=C(C(c1ccccc1)N1CC[C@H](F)C1)N1CCC[C@H]1c1ncc(-c2ccc(-c3ccc(-c4cnc([C@@H]5CCCN5C(=O)C(c5ccccc5)N5CC[C@H](F)C5)[nH]4)cc3)cc2)[nH]1 (stereo partly drawn) [Example 19, 5,5′-(4,4′-biphenyldiyl)bis(2-((2S)-1-(((3S)-3-fluoro-1-pyrrolidinyl)(phenyl)acetyl)-2-pyrrolidinyl)-1H-imidazole)]
pEC50: 9.00 to 12.00

O=C(C(c1ccccc1)N1CC[C@H](F)C1)N1CCC[C@H]1c1ncc(-c2ccc(-c3ccc(-c4cnc([C@@H]5CCCN5C(=O)C(c5ccccc5)N5CC[C@H](F)C5)[nH]4)cc3)cc2)[nH]1 (stereo partly drawn) [Example 20, 5,5′-(4,4′-biphenyldiyl)bis(2-((2S)-1-(((3S)-3-fluoro-1-pyrrolidinyl)(phenyl)acetyl)-2-pyrrolidinyl)-1H-imidazole)]
pEC50: 7.00 to 9.00

CCN(CC)[C@@H](C(=O)N1CCC[C@H]1c1ncc(-c2ccc(-c3ccc(-c4cnc([C@@H]5CCCN5C(=O)[C@@H](c5ccccc5)N(CC)CC)[nH]4)cc3)cc2)[nH]1)c1ccccc1 [Example 21, (1R,1′R)-2,2′-(4,4′-biphenyldiylbis(1H-imidazole-5,2-diyl(2S)-2,1-pyrrolidinediyl))bis(N,N-diethyl-2-oxo-1-phenylethanamine)]
pEC50 (Hepatitis C virus): 9.00 to 12.00

CCN(C)[C@@H](C(=O)N1CCC[C@H]1c1ncc(-c2ccc(-c3ccc(-c4cnc([C@@H]5CCCN5C(=O)[C@@H](c5ccccc5)N(C)CC)[nH]4)cc3)cc2)[nH]1)c1ccccc1 [Example 22, (1R,1′R)-2,2′-(4,4′-biphenyldiylbis(1H-imidazole-5,2-diyl(2S)-2,1-pyrrolidinediyl))bis(N-ethyl-N-methyl-2-oxo-1-phenylethanamine)]
pEC50 (Hepatitis C virus): 9.00 to 12.00

O=CN[C@@H](C(=O)N1CCC[C@H]1c1ncc(-c2ccc(-c3ccc(-c4cnc([C@@H]5CCCN5C(=O)[C@H](NC=O)c5ccccc5)[nH]4)cc3)cc2)[nH]1)c1ccccc1 [Example 23, N,N′-(4,4′-biphenyldiylbis(1H-imidazole-5,2-diyl(2S)-2,1-pyrrolidinediyl((1R)-2-oxo-1-phenyl-2,1-ethanediyl)))diformamide]
pEC50 (Hepatitis C virus): 9.00 to 12.00

O=C(N1CCC[C@H]1c1ncc(-c2ccc(-c3ccc(-c4cnc([C@@H]5CCCN5C(=O)C5(O)CC5)[nH]4)cc3)cc2)[nH]1)C1(O)CC1 [Example 24, 1,1′-(4,4′-biphenyldiylbis(1H-imidazole-5,2-diyl(2S)-2,1-pyrrolidinediylcarbonyl))dicyclopropanol]
pEC50 (Hepatitis C virus): 7.00 to 9.00

O=C([C@@H](c1ccccc1)N1CCCCC1)N1CCC[C@H]1c1ncc(-c2ccc(-c3ccc(-c4cnc([C@@H]5CCCN5C(=O)[C@@H](c5ccccc5)N5CCCCC5)[nH]4)cc3)cc2)[nH]1 [Example 24-1, 1,1′-(4,4′-biphenyldiylbis(1H-imidazole-5,2-diyl(2S)-2,1-pyrrolidinediyl((1R)-2-oxo-1-phenyl-2,1-ethanediyl)))dipiperidine]
pEC50 (Hepatitis C virus): 9.00 to 12.00

CC1(O)CCN([C@@H](C(=O)N2CCC[C@H]2c2ncc(-c3ccc(-c4ccc(-c5cnc([C@@H]6CCCN6C(=O)[C@@H](c6ccccc6)N6CCC(C)(O)CC6)[nH]5)cc4)cc3)[nH]2)c2ccccc2)CC1 [Example 24-2, 1,1′-(4,4′-biphenyldiylbis(1H-imidazole-5,2-diyl(2S)-2,1-pyrrolidinediyl((1R)-2-oxo-1-phenyl-2,1-ethanediyl)))bis(4-methyl-4-piperidinol)]
pEC50 (Hepatitis C virus): 9.00 to 12.00

COC(=O)N[C@@H](C(=O)N1CCC[C@H]1c1ncc(-c2ccc(-c3ccc(-c4cnc([C@@H]5CCCN5C(=O)[C@H](NC(=O)OC)c5ccccc5Cl)[nH]4)cc3)cc2)[nH]1)c1ccccc1Cl [Example 24-3, dimethyl (4,4′-biphenyldiylbis(1H-imidazole-5,2-diyl(2S)-2,1-pyrrolidinediyl((1R)-1-(2-chlorophenyl)-2-oxo-2,1-ethanediyl)))biscarbamate]
pEC50 (Hepatitis C virus): 9.00 to 12.00

CN(C)C(=O)N[C@@H](C(=O)N1CCC[C@H]1c1nc(-c2ccc(-c3ccc(-c4c[nH]c([C@@H]5CCCN5C(=O)[C@H](NC(=O)N(C)C)c5ccccc5)n4)cc3)cc2)c[nH]1)c1ccccc1 [Example 24-4a, N′,N′′′-(4,4′-biphenyldiylbis(1H-imidazole-4,2-diyl(2S)-2,1-pyrrolidinediyl((1R)-2-oxo-1-phenyl-2,1-ethanediyl)))bis(1,1-dimethylurea)]
pEC50 (Hepatitis C virus): 9.00 to 12.00

CNC(=O)N[C@@H](C(=O)N1CCC[C@H]1c1ncc(-c2ccc(-c3ccc(-c4cnc([C@@H]5CCCN5C(=O)[C@H](NC(=O)NC)c5ccccc5)[nH]4)cc3)cc2)[nH]1)c1ccccc1 [Example 24-4b, N′,N′′′-(4,4′-biphenyldiylbis(1H-imidazole-5,2-diyl(2S)-2,1-pyrrolidinediyl((1R)-2-oxo-1-phenyl-2,1-ethanediyl)))bis(1-methylurea)]
pEC50 (Hepatitis C virus): 7.00 to 9.00

CCNC(=O)N[C@@H](C(=O)N1CCC[C@H]1c1ncc(-c2ccc(-c3ccc(-c4cnc([C@@H]5CCCN5C(=O)[C@H](NC(=O)NCC)c5ccccc5)[nH]4)cc3)cc2)[nH]1)c1ccccc1 [Example 24-4c, N′,N′′′-(4,4′-biphenyldiylbis(1H-imidazole-5,2-diyl(2S)-2,1-pyrrolidinediyl((1R)-2-oxo-1-phenyl-2,1-ethanediyl)))bis(1-ethylurea)]
pEC50 (Hepatitis C virus): 9.00 to 12.00

O=C(NC1CCCC1)N[C@@H](C(=O)N1CCC[C@H]1c1ncc(-c2ccc(-c3ccc(-c4cnc([C@@H]5CCCN5C(=O)[C@H](NC(=O)NC5CCCC5)c5ccccc5)[nH]4)cc3)cc2)[nH]1)c1ccccc1 [Example 24-4d, N′,N′′′-(4,4′-biphenyldiylbis(1H-imidazole-5,2-diyl(2S)-2,1-pyrrolidinediyl((1R)-2-oxo-1-phenyl-2,1-ethanediyl)))bis(1-cyclopentylurea)]
pEC50 (Hepatitis C virus): 9.00 to 12.00

CN(CC(=O)N1CCC[C@H]1c1ncc(-c2ccc(-c3ccc(-c4cnc([C@@H]5CCCN5C(=O)CN(C)Cc5ccccc5)[nH]4)cc3)cc2)[nH]1)Cc1ccccc1 [Example 24-4e, 2,2′-(4,4′-biphenyldiylbis(1H-imidazole-5,2-diyl(2S)-2,1-pyrrolidinediyl))bis(N-benzyl-N-methyl-2-oxoethanamine)]
pEC50 (Hepatitis C virus): 7.00 to 9.00

C[C@@H](C(=O)N1CCC[C@H]1c1ncc(-c2ccc(-c3ccc(-c4cnc([C@@H]5CCCN5C(=O)[C@H](C)N(C)Cc5ccccc5)[nH]4)cc3)cc2)[nH]1)N(C)Cc1ccccc1 [Example 24-4f, (2S,2′S)-1,1′-(4,4′-biphenyldiylbis(1H-imidazole-5,2-diyl(2S)-2,1-pyrrolidinediyl))bis(N-benzyl-N-methyl-1-oxo-2-propanamine)]
pEC50 (Hepatitis C virus): 6.00 to 7.00

CC(C)C(C(=O)N1CCC[C@H]1c1ncc(-c2ccc(-c3ccc(-c4cnc([C@@H]5CCCN5C(=O)C(C(C)C)N(C)Cc5ccccc5)[nH]4)cc3)cc2)[nH]1)N(C)Cc1ccccc1 (stereo partly drawn) [Example 24-4g, 1,1′-(4,4′-biphenyldiylbis(1H-imidazole-5,2-diyl(2S)-2,1-pyrrolidinediyl))bis(N-benzyl-N,3-dimethyl-1-oxo-2-butanamine)]
pEC50 (Hepatitis C virus): 5.00 to 6.00

O=C(C(c1ccccc1)N1CCC(O)CC1)N1CCC[C@H]1c1ncc(-c2ccc(-c3ccc(-c4cnc([C@@H]5CCCN5C(=O)C(c5ccccc5)N5CCC(O)CC5)[nH]4)cc3)cc2)[nH]1 (stereo partly drawn) [Example 24-4h, 1,1′-(4,4′-biphenyldiylbis(1H-imidazole-5,2-diyl(2S)-2,1-pyrrolidinediyl(2-oxo-1-phenyl-2,1-ethanediyl)))di(4-piperidinol)]
pEC50 (Hepatitis C virus): 9.00 to 12.00

CN(C)[C@@H](C(=O)N1C[C@@H](F)C[C@H]1c1ncc(-c2ccc(-c3ccc(-c4cnc([C@@H]5C[C@H](F)CN5C(=O)[C@@H](c5ccccc5)N(C)C)[nH]4)cc3)cc2)[nH]1)c1ccccc1 [Example 24-5]
pEC50 (Hepatitis C virus): 9.00 to 12.00

CCN(CC)[C@@H](C(=O)N1C[C@@H](F)C[C@H]1c1ncc(-c2ccc(-c3ccc(-c4cnc([C@@H]5C[C@H](F)CN5C(=O)[C@@H](c5ccccc5)N(CC)CC)[nH]4)cc3)cc2)[nH]1)c1ccccc1 [Example 24-6]
pEC50 (Hepatitis C virus): 9.00 to 12.00

O=C([C@@H](c1ccccc1)N1CCCCC1)N1C[C@@H](F)C[C@H]1c1ncc(-c2ccc(-c3ccc(-c4cnc([C@@H]5C[C@H](F)CN5C(=O)[C@@H](c5ccccc5)N5CCCCC5)[nH]4)cc3)cc2)[nH]1 [Example 24-7]
pEC50 (Hepatitis C virus): 9.00 to 12.00

O=C([C@@H](c1ccccc1)N1CCCCC1)N1CC(F)(F)C[C@H]1c1nc(-c2ccc(-c3ccc(-c4cnc([C@@H]5CC(F)(F)CN5C(=O)[C@@H](c5ccccc5)N5CCCCC5)[nH]4)cc3)cc2)c[nH]1 [Example 24-8, 1,1′-(4,4′-biphenyldiylbis(1H-imidazol-4,2-diyl((2S)-4,4-difluoro-2,1-pyrrolidinediyl)((1R)-2-oxo-1-phenyl-2,1-ethanediyl)))dipiperidine]
pEC50 (Hepatitis C virus): 9.00 to 12.00

COC(=O)N[C@@H](C(=O)N1CC(F)(F)C[C@H]1c1nc(-c2ccc(-c3ccc(-c4cnc([C@@H]5CC(F)(F)CN5C(=O)[C@H](NC(=O)OC)c5ccccc5)[nH]4)cc3)cc2)c[nH]1)c1ccccc1 [Example 24-9, dimethyl (4,4′-biphenyldiylbis(1H-imidazole-4,2-diyl((2S)-4,4-difluoro-2,1-pyrrolidinediyl)((1R)-2-oxo-1-phenyl-2,1-ethanediyl)))biscarbamate]
pEC50 (Hepatitis C virus): 9.00 to 12.00
